We go through 26 molecules from US8946438B2, “Benzamides, production thereof, and use thereof as medicaments” (Boehringer Ingelheim International GmbH, priority 2008, dated 2015).

The target in this assay is p38 MAP-kinase (Homo sapiens, UniProt Q16539). Briefly: Enzymatic assay: inhibition of p38 MAP-kinase (phosphorylation of GST-tagged ATF2, chemoluminescence bead readout). Conditions: inhibitor 1 μM; activated p38 MAP-kinase 1 nM; 4 h preincubation; ATP 100 μM; ATF2 10 nM; read-out: % inhibitory effect at 1 μM. The format is biochemical. The method in brief:
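Activated human p38 MAP-kinase (1 nM) preincubated 4 h at ambient temperature with compound at 1 μM in HEPES pH 7, MgCl2, DTT, Tween20. Then reacted 1 h with GST-ATF2 (10 nM) and ATP (100 μM). Phospho-ATF2 read by bead chemoluminescence at 520-620 nm, given as % inhibition at 1 μM versus kinase-free background.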

Chain of p38 MAP-kinase (Q16539 whole entry): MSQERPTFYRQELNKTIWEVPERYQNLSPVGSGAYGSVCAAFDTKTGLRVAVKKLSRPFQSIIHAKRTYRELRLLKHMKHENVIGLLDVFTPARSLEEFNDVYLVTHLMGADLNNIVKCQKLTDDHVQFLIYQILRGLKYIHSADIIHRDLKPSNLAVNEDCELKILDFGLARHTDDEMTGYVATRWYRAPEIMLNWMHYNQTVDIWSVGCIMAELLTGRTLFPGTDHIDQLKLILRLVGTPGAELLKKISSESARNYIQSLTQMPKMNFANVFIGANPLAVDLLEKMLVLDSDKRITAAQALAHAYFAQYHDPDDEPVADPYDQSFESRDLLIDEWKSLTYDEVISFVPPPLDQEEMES

`COc1c(NC(=O)c2ccc(C)c(Oc3cc(CN4CCNC(=O)C4)ncn3)c2)cc(C(C)(C)C)cc1NS(C)(=O)=O` [8(7), N-(5-tert-butyl-3-methanesulphonylamino-2-methoxy-phenyl)-4-methyl-3-[6-(3-oxo-piperazin-1-ylmethyl)-pyrimidin-4-yloxy]-benzamide]: the inhibition at 1 µM amounted to 94.1%.
The result for `COc1c(NC(=O)c2ccc(C)c(Oc3ccnc(CN4CCOCC4)c3)c2)cc(C(C)(C)C)cc1NS(C)(=O)=O` [8(9), N-(5-tert-butyl-3-methanesulphonylamino-2-methoxy-phenyl)-4-methyl-3-(2-morpholin-4-ylmethyl-pyridin-4-yloxy)-benzamide] reads 98.4%; that for `COc1c(NC(=O)c2ccc(C)c(Oc3ccnc(CN4CCN(C)CC4)c3)c2)cc(C(C)(C)C)cc1NS(C)(=O)=O` [8(10), N-(5-tert-butyl-3-methanesulphonylamino-2-methoxy-phenyl)-4-methyl-3-[2-(4-methyl-piperazin-1-ylmethyl)-pyridin-4-yloxy]-benzamide], 98.9%.
The result for `COc1c(NC(=O)c2ccc(C)c(Oc3ccnc(CN[C@H]4CCOC4)c3)c2)cc(C(C)(C)C)cc1NS(C)(=O)=O` [8(11), (S)-N-(5-tert-butyl-3-methanesulphonylamino-2-methoxy-phenyl)-4-methyl-3-{2-[(tetrahydro-furan-3-ylamino)-methyl]-pyridin-4-yloxy}-benzamide] reads 96.7%; that for `COc1c(NC(=O)c2ccc(C)c(Oc3ccnc(CN4CC[C@@H](O)C4)c3)c2)cc(C(C)(C)C)cc1NS(C)(=O)=O` [8(12), (R)-N-(5-tert-butyl-3-methanesulphonylamino-2-methoxy-phenyl)-3-[2-(3-hydroxy-pyrrolidin-1-ylmethyl)-pyridin-4-yloxy]-4-methyl-benzamide], 97%.
The result for `COc1c(NC(=O)c2ccc(C)c(Oc3ccnc(CN4CC[C@H](O)C4)c3)c2)cc(C(C)(C)C)cc1NS(C)(=O)=O` [8(13), (S)-N-(5-tert-butyl-3-methanesulphonylamino-2-methoxy-phenyl)-3-[2-(3-hydroxy-pyrrolidin-1-ylmethyl)-pyridin-4-yloxy]-4-methyl-benzamide] reads 96.8%; that for `CNCc1cc(Oc2cc(C(=O)Nc3cc(C(C)(C)C)cc(NS(C)(=O)=O)c3OC)ccc2C)ccn1` [8(14), N-(5-tert-butyl-3-methanesulphonylamino-2-methoxy-phenyl)-4-methyl-3-(2-methylaminomethyl-pyridin-4-yloxy)-benzamide], 91.1%.
Turning to `COc1c(NC(=O)c2ccc(C)c(Oc3ccnc(CN[C@@H]4CCOC4)c3)c2)cc(C(C)(C)C)cc1NS(C)(=O)=O` [8(15), (R)-N-(5-tert-butyl-3-methanesulphonylamino-2-methoxy-phenyl)-4-methyl-3-{2-[(tetrahydro-furan-3-ylamino)-methyl]-pyridin-4-yloxy}-benzamide], the inhibition at 1 µM is 95.9%.
For `COc1c(NC(=O)c2ccc(C)c(Oc3ccnc(CN4CCCN(C)CC4)n3)c2)cc(C(C)(C)C)cc1NS(C)(=O)=O` [8(16), N-(5-tert-butyl-3-methanesulphonylamino-2-methoxy-phenyl)-4-methyl-3-[2-(4-methyl-homopiperazin-1-ylmethyl)-pyrimidin-4-yloxy]-benzamide], the inhibition at 1 µM came out at 98.7%.
As for `COc1c(NC(=O)c2ccc(C)c(Oc3ccnc(CNC4CCN(C)CC4)n3)c2)cc(C(C)(C)C)cc1NS(C)(=O)=O` [8(17), N-(5-tert-butyl-3-methanesulphonylamino-2-methoxy-phenyl)-4-methyl-3-{2-[(1-methyl-piperidin-4-ylamino)-methyl]-pyrimidin-4-yloxy}-benzamide], the inhibition at 1 µM worked out at 96.7%.
The result for `COc1c(NC(=O)c2ccc(C)c(Oc3ccnc(CNC4CCCN(C)C4)n3)c2)cc(C(C)(C)C)cc1NS(C)(=O)=O` (centres unmarked) [8(18), N-(5-tert-butyl-3-methanesulphonylamino-2-methoxy-phenyl)-4-methyl-3-{2-[(1-methyl-piperidin-3-ylamino)-methyl]-pyrimidin-4-yloxy}-benzamide] reads 98.6%.
The result for `COc1c(NC(=O)c2ccc(C)c(Oc3ccnc(CN(C)C4CCN(C)C4)n3)c2)cc(C(C)(C)C)cc1NS(C)(=O)=O` (centres unmarked) [8(19), N-(5-tert-butyl-3-methanesulphonylamino-2-methoxy-phenyl)-4-methyl-3-(2-{[methyl-(1-methyl-pyrrolidin-3-yl)-amino]-methyl}-pyrimidin-4-yloxy)-benzamide] reads 97%; that for `COc1c(NC(=O)c2ccc(C)c(Oc3ccnc(CN4CCCN(C)CC4)c3)c2)cc(C(C)(C)C)cc1NS(C)(=O)=O` [8(20), N-(5-tert-butyl-3-methanesulphonylamino-2-methoxy-phenyl)-4-methyl-3-[2-(4-methyl-homopiperazin-1-ylmethyl)-pyridin-4-yloxy]-benzamide], 99.4%.
`COc1c(NC(=O)c2ccc(C)c(Oc3ccnc(CN4CC[C@H](N(C)C)C4)n3)c2)cc(C(C)(C)C)cc1NS(C)(=O)=O` [8(21), (S)-N-(5-tert-butyl-3-methanesulphonylamino-2-methoxy-phenyl)-3-[2-(3-dimethylamino-pyrrolidin-1-ylmethyl)-pyrimidin-4-yloxy]-4-methyl-benzamide]: the inhibition at 1 µM worked out at 98.5%.
The result for `COc1c(NC(=O)c2ccc(C)c(Oc3ccnc(CN4CC[C@@H](N(C)C)C4)n3)c2)cc(C(C)(C)C)cc1NS(C)(=O)=O` [8(22), (R)-N-(5-tert-butyl-3-methanesulphonylamino-2-methoxy-phenyl)-3-[2-(3-dimethylamino-pyrrolidin-1-ylmethyl)-pyrimidin-4-yloxy]-4-methyl-benzamide] reads 98.3%.
The result for `COc1c(NC(=O)c2ccc(C)c(Oc3ccnc(CNC4CCN(C)C4)n3)c2)cc(C(C)(C)C)cc1NS(C)(=O)=O` (centres unmarked) [8(23), N-(5-tert-butyl-3-methanesulphonylamino-2-methoxy-phenyl)-4-methyl-3-{2-[(1-methyl-pyrrolidin-3-ylamino)-methyl]-pyrimidin-4-yloxy}-benzamide] reads 97.8%.
The result for `COc1c(NC(=O)c2ccc(C)c(Oc3ccnc(CN(C)CCN(C)C)n3)c2)cc(C(C)(C)C)cc1NS(C)(=O)=O` [8(24), N-(5-tert-butyl-3-methanesulphonylamino-2-methoxy-phenyl)-3-(2-{[N-(2-dimethylamino-ethyl)-N-methyl-amino]-methyl}-pyrimidin-4-yloxy)-4-methyl-benzamide] reads 92.4%; that for `COc1c(NC(=O)c2ccc(C)c(Oc3ccnc(CNCCN(C)C)n3)c2)cc(C(C)(C)C)cc1NS(C)(=O)=O` [8(25), N-(5-tert-butyl-3-methanesulphonylamino-2-methoxy-phenyl)-3-{2-[(2-dimethylamino-ethylamino)-methyl]-pyrimidin-4-yloxy}-4-methyl-benzamide], 98.6%.
As to `COc1c(NC(=O)c2ccc(C)c(Oc3ccnc(CN(C)CCN(C)C)c3)c2)cc(C(C)(C)C)cc1NS(C)(=O)=O` [8(26), N-(5-tert-butyl-3-methanesulphonylamino-2-methoxy-phenyl)-3-(2-{[(2-dimethylamino-ethyl)-methyl-amino]-methyl}-pyridin-4-yloxy)-4-methyl-benzamide], the inhibition at 1 µM turned out to be 97.7%.
As for `COc1c(NC(=O)c2ccc(C)c(Oc3ccnc(CNCCN(C)C)c3)c2)cc(C(C)(C)C)cc1NS(C)(=O)=O` [8(27), N-(5-tert-butyl-3-methanesulphonylamino-2-methoxy-phenyl)-3-{2-[(2-dimethylamino-ethylamino)-methyl]-pyridin-4-yloxy}-4-methyl-benzamide], the inhibition at 1 µM came out at 98.4%.
As to `COc1c(NC(=O)c2cc(C)cc(Oc3ccnc(CN4CCN(C)CC4)n3)c2)cc(C(C)(C)C)cc1NS(C)(=O)=O` [8(28), N-(5-tert-butyl-3-methanesulphonylamino-2-methoxy-phenyl)-3-methyl-5-[2-(4-methyl-piperazin-1-ylmethyl)-pyrimidin-4-yloxy]-benzamide], the inhibition at 1 µM was determined as 81.8%.
With `COc1c(NC(=O)c2ccc(C)c(Oc3cc(CNCCN(C)C)ncn3)c2)cc(C(C)(C)C)cc1NS(C)(=O)=O` [8(29), N-(5-tert-butyl-3-methanesulphonylamino-2-methoxy-phenyl)-3-{6-[(2-dimethylamino-ethylamino)-methyl]-pyrimidin-4-yloxy}-4-methyl-benzamide], the inhibition at 1 µM was determined as 89%.
For `COc1c(NC(=O)c2ccc(C)c(Oc3cc(CN(C)CCN(C)C)ncn3)c2)cc(C(C)(C)C)cc1NS(C)(=O)=O` [8(30), N-(5-tert-butyl-3-methanesulphonylamino-2-methoxy-phenyl)-3-(6-{[(2-dimethylamino-ethyl)-methyl-amino]-methyl}-pyrimidin-4-yloxy)-4-methyl-benzamide], the inhibition at 1 µM was determined as 91.3%.
As to `COc1c(NC(=O)c2ccc(Cl)c(Oc3cc(CNCCN(C)C)ncn3)c2)cc(C(C)(C)C)cc1NS(C)(=O)=O` [8(31), N-(5-tert-butyl-3-methanesulphonylamino-2-methoxy-phenyl)-4-chloro-3-{6-[(2-dimethylamino-ethylamino)-methyl]-pyrimidin-4-yloxy}-benzamide], the inhibition at 1 µM was found to be 86.5%.
Consider `COc1c(NC(=O)c2ccc(Cl)c(Oc3cc(CN(C)CCN(C)C)ncn3)c2)cc(C(C)(C)C)cc1NS(C)(=O)=O` [8(32), N-(5-tert-butyl-3-methanesulphonylamino-2-methoxy-phenyl)-4-chloro-3-(6-{[(2-dimethylamino-ethyl)-methyl-amino]-methyl}-pyrimidin-4-yloxy)-benzamide], for which the inhibition at 1 µM was 92.6%.
The result for `COc1c(NC(=O)c2ccc(Cl)c(Oc3ccnc(CN(C)CCN(C)C)c3)c2)cc(C(C)(C)C)cc1NS(C)(=O)=O` [8(33), N-(5-tert-butyl-3-methanesulphonylamino-2-methoxy-phenyl)-4-chloro-3-(2-{[(2-dimethylamino-ethyl)-methyl-amino]-methyl}-pyridin-4-yloxy)-benzamide] reads 97.1%.
